Experimental findings from ChEMBL document CHEMBL1201862, “PubChem BioAssay data set” (2004) are described below.

Each structure is given as a SMILES string. The source made the active and inactive calls. Some results are limits rather than exact numbers.

The nature of assay [1]: Luminescence Cell-Based Dose Response HTS to Identify Activators of Luciferase Translation or Activity in H4 […] Cells. [Related pubchem assays: 1829 (Project Summary), 1814 (Primary HTS)]. It is filed as functional.
The test system of a further assay is H4. Kind of assay: Luminescence Cell-Based Dose Response HTS to Identify Activators of 5'UTR Stem-Loop Driven Prion Protein mRNA Translation in H4 Neuroglioblastoma Cells. [Related pubchem assays: 1829 (Project Summary), 1814 (Primary HTS)]. Format: functional. The settings on record: Homo sapiens.
The target of assay [2] is T1, Alkaline phosphatase, tissue-nonspecific isozyme (Homo sapiens, UniProt P05186).
T1 sequence (P05186 whole entry): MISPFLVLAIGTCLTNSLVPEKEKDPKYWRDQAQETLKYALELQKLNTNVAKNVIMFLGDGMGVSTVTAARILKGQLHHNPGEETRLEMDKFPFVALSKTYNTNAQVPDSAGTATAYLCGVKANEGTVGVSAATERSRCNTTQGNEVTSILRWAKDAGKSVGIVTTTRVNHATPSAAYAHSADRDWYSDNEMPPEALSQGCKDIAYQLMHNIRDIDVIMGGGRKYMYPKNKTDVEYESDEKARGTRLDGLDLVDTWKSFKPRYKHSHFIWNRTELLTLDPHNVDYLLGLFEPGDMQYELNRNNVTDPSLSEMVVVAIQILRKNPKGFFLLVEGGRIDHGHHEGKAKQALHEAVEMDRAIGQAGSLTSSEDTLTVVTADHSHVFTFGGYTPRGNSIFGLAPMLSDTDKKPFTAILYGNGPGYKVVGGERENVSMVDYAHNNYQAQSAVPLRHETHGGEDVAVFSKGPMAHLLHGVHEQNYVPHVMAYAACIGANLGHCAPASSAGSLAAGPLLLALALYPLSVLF

In assay [3] the target is T2, Mucolipin-3 (Homo sapiens, UniProt Q8TDD5). Kind of assay: Dose response cell-based high-throughput screening assay for agonists of the transient receptor potential channel ML3 (TRPML3). [Related pubchem assays: 1526, 1424, 1448 ]. Format: functional.
Assay [4] deals with T3, Ion channel NompC (Danio rerio, UniProt Q7T1G6). Kind of assay: Fluorescence counterscreen assay for TRPML3 agonists: dose response cell-based high-throughput screening assay to identify agonists of the transient receptor potential channel N1 (TRPN1). [Related pubchem assays: 1526, 1424, 1448 ]. It is filed as functional. (In general: A counterscreen serves to expose hits that act by an unwanted route or on another target.)

Assay [5] concerns the target T2, Mucolipin-3. Kind of assay: TRPML3 and TRPML2 channel agonists, cell-based, patch clamp, Fura-2 profiling panel, panel member TRPML3 Dose Response (AID 2116). For orientation: Patch clamp records ionic current or voltage across a cell membrane.
Assay [6] addresses T3, Ion channel NompC. Kind of assay: TRPML3 and TRPML2 channel agonists, cell-based, patch clamp, Fura-2 profiling panel, panel member TRPN1 Dose Response (AID 2116).
Assay [7] deals with NACHT, LRR and PYD domains-containing protein 3 (Homo sapiens, UniProt Q96P20). Kind of assay: NALP3 inhibitors in yeast, dose response, luminescent (AID 488799). Format: functional.
Assay [8] has as its target Dual specificity protein phosphatase 3 (Homo sapiens, UniProt P51452). Kind of assay: VHR1 inhibitor Ki determination, SAR follow-up, biochemical, colorimetric (AID 2004).
In assay [9] the target is T4, Eukaryotic translation initiation factor 2-alpha kinase 3 (Homo sapiens, UniProt Q9NZJ5). Kind of assay: Dose response cell-based high-throughput screening assay to measure PERK inhibition. [Related pubchem assays: 1416 ]. It is filed as functional.
In assay [10] the target is T4, Eukaryotic translation initiation factor 2-alpha kinase 3. Kind of assay: Counterscreen assay for PERK inhibitors: Dose response cell-based high throughput screening assay to measure inhibition of PERK at 6 hours. [Related pubchem assays: 1522, 1416 ]. It is filed as functional.
In a further assay the test system is Streptococcus. Kind of assay: Luminescence Microorganism-Based Dose Response Follow up to Identify Compounds Cytotoxic to Streptococcus. [Related pubchem assays: 1677 (Project Summary), 1915, 1914, 1902 (Retest at Dose), 1900 (Counter Screen), 1662 (Primary HTS)]. It is filed as functional, organism-based.
The target in a further assay is T5, Leucine aminopeptidase (Plasmodium falciparum 3D7, UniProt Q8IL11).
T5 sequence (Q8IL11 whole entry): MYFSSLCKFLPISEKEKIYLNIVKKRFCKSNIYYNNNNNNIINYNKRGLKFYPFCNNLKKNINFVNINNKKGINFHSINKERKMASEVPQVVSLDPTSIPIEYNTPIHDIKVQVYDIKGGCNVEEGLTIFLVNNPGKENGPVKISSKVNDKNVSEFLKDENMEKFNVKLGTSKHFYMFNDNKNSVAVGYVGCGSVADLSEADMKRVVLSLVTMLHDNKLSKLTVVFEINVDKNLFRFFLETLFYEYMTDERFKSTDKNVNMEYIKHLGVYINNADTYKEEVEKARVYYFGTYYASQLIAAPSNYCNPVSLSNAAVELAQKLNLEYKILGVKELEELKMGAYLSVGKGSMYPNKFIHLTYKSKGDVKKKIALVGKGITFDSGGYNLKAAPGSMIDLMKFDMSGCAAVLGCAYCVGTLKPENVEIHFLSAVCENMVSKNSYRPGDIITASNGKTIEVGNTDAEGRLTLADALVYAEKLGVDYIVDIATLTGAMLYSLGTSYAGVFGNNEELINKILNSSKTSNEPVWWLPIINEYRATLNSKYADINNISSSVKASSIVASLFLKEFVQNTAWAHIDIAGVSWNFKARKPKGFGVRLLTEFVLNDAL
Kind of assay: P. falciparum M17LAP inhibitors, primary screen, biochemical, fluorogenic H-Leu-NHMec substrate, 1536-well (AID 1619). Format: functional.

For assay [11], the target named is G-protein coupled receptor 35 (Homo sapiens, UniProt Q9HC97). Kind of assay: GPR35 antagonists blocking zaprinast-driven arrestin recruitment, primary screen, imaging, U2OS, beta-arrestin-GFP, zaprinast agonist (AID 2058).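 Also: antagonist potency meaning inhibition of agonist-induced arrestin redistribution.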 Format: functional.
In assay [12] the target is Beta-lactamase (Pseudomonas aeruginosa, UniProt Q79MP6).
Assay [13] deals with T6, Calpain-2 catalytic subunit (Sus scrofa, UniProt P43367).
T6 sequence (P43367 whole entry): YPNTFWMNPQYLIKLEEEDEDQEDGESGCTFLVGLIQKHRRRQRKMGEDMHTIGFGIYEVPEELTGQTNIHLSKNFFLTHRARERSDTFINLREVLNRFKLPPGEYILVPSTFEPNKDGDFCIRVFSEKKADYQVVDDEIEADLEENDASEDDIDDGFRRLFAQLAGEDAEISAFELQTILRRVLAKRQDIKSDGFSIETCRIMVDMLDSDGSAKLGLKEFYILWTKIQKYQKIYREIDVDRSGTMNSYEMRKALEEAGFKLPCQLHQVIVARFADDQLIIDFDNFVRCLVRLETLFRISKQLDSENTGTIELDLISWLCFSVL
Kind of assay: pig calpain II inhibitor potency, dose response, biochemical, fluorogenic peptide substrate (AID 1420). It is filed as functional.

In assay [14] the target is Beta-lactamase (Salmonella choleraesuis (strain SC-B67), UniProt Q5J463).
A short description of assay [15]: enhancers of respiration in Yfh1-depleted yeast, dose response, Friedreich's ataxia, plus single-dose screen (AID 1465).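 Also: yeast depleted of Yfh1p frataxin homolog grown on glycerol needing respiration; WST-1 tetrazolium dye reduction as measure of cellular dehydrogenase metabolic activity.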 Format: functional.

T3 sequence (Q7T1G6 whole entry): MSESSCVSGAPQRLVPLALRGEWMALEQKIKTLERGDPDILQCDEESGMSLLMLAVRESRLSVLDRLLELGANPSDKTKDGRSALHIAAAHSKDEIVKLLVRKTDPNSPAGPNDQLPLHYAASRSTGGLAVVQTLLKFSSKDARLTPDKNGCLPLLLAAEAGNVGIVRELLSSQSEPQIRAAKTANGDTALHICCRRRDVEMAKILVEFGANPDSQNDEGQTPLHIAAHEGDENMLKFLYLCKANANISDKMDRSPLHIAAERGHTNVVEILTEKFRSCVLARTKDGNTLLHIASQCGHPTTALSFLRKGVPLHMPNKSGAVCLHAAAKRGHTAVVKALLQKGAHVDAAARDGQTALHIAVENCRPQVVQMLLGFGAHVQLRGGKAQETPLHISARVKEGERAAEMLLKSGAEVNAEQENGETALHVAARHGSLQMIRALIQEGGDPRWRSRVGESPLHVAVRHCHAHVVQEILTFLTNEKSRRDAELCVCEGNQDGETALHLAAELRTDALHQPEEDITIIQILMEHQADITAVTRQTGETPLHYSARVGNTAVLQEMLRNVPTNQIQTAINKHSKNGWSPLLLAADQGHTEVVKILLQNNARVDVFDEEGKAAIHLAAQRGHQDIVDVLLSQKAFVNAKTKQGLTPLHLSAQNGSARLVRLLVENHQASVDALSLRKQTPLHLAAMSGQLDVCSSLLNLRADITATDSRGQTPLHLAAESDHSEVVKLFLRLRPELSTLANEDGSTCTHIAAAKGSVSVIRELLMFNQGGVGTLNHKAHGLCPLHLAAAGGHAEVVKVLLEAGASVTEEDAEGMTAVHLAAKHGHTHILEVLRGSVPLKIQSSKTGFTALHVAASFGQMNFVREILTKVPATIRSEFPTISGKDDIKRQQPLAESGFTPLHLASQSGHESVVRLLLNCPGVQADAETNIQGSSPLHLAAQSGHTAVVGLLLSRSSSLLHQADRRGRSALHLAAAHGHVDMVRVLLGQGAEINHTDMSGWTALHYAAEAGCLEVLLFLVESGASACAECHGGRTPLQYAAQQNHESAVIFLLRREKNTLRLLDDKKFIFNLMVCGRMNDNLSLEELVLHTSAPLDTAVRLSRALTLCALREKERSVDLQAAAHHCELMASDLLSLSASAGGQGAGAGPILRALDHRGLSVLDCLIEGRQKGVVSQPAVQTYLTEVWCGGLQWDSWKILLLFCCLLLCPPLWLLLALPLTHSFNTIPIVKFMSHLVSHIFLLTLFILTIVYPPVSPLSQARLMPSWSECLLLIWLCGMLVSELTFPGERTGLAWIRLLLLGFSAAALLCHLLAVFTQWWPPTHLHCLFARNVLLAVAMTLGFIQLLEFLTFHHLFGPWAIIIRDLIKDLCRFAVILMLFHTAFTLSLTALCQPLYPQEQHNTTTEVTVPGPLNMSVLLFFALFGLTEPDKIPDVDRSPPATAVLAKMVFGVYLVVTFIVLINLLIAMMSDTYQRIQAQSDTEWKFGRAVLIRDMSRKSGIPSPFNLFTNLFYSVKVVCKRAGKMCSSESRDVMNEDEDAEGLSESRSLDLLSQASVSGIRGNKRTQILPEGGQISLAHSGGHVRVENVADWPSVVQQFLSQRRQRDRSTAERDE
T2 sequence (Q8TDD5 whole entry): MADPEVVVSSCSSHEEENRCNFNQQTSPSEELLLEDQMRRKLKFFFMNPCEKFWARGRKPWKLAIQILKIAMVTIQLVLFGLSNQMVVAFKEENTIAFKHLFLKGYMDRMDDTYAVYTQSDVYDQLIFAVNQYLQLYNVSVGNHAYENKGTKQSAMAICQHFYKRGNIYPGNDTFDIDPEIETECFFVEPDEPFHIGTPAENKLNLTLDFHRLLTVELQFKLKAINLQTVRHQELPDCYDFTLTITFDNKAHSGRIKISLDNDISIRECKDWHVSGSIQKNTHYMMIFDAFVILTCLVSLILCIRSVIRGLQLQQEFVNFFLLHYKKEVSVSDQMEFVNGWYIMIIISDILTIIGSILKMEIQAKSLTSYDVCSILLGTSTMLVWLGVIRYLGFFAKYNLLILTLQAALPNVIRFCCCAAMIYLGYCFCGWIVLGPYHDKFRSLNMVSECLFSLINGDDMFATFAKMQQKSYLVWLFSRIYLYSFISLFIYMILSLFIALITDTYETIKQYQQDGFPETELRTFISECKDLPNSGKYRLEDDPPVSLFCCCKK
T4 sequence (Q9NZJ5 whole entry): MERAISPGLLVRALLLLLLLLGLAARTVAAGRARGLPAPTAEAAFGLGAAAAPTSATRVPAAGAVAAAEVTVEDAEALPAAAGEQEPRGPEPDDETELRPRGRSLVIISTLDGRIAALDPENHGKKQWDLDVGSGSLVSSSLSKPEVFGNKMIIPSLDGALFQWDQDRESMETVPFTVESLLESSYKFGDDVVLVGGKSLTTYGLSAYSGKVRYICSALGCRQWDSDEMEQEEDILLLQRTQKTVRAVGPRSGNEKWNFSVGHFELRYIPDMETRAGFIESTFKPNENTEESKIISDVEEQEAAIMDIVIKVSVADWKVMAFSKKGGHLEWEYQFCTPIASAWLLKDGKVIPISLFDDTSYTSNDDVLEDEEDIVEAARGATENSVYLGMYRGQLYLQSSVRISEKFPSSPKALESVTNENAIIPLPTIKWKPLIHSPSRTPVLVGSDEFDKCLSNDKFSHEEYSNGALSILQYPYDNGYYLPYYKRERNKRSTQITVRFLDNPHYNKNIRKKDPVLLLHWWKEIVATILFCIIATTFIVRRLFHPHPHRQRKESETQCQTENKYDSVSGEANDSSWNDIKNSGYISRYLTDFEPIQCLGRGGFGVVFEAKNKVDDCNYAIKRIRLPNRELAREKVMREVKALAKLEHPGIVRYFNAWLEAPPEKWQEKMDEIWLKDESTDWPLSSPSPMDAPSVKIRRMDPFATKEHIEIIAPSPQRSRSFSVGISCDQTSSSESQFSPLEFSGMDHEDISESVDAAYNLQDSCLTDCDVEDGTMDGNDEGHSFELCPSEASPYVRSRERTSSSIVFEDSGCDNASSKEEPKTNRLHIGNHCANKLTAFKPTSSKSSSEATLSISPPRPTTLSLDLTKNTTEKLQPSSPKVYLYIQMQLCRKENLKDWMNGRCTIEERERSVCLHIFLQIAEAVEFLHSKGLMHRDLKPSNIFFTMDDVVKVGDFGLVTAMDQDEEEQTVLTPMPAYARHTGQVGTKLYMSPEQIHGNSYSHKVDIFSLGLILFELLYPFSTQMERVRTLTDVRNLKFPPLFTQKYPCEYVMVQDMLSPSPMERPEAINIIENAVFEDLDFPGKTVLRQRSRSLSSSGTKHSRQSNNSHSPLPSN
Chain of NACHT, LRR and PYD domains-containing protein 3 (Q96P20 whole entry, the tested form may be a part): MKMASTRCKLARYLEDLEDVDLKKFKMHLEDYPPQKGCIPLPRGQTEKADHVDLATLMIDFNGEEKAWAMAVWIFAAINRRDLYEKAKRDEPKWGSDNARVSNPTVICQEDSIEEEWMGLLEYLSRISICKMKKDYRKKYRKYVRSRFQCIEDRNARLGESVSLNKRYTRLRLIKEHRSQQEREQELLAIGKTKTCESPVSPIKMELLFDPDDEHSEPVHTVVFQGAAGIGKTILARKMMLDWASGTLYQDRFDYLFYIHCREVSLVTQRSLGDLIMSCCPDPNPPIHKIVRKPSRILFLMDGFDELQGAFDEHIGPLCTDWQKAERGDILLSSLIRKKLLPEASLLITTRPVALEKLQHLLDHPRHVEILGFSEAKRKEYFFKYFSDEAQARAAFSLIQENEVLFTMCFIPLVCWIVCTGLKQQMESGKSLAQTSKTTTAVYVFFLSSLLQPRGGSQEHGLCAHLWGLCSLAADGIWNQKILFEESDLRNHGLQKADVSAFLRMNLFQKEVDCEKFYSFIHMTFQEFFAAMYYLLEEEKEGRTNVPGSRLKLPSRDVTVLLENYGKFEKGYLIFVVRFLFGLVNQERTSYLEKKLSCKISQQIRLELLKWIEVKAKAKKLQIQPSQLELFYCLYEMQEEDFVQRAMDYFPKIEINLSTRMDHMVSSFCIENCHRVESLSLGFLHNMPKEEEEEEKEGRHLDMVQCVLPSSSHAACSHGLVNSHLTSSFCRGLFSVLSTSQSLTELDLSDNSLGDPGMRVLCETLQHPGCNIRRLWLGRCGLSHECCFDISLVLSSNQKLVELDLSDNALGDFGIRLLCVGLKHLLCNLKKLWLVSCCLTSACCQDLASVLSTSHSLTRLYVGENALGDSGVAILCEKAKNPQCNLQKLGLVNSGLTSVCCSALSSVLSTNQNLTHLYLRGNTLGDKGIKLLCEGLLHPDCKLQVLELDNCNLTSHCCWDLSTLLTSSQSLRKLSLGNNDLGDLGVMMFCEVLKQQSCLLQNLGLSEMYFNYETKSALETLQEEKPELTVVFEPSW
Chain of G-protein coupled receptor 35 (Q9HC97 whole entry): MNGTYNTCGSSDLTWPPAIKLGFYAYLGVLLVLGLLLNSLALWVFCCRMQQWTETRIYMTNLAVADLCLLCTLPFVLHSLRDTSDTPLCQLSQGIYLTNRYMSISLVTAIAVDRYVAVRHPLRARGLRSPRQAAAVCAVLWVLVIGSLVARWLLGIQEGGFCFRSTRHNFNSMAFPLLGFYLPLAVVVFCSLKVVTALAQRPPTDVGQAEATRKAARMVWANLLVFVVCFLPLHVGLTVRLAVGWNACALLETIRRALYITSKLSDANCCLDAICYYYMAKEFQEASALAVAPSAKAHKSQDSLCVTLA
Chain of Dual specificity protein phosphatase 3 (P51452 whole entry): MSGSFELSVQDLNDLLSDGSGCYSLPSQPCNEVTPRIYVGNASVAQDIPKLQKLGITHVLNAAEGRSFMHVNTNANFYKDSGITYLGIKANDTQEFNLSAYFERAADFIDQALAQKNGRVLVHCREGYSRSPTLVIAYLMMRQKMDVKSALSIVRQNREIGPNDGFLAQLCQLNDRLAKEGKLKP
Chain of Beta-lactamase (Pseudomonas aeruginosa, UniProt Q79MP6) (Q79MP6 whole entry): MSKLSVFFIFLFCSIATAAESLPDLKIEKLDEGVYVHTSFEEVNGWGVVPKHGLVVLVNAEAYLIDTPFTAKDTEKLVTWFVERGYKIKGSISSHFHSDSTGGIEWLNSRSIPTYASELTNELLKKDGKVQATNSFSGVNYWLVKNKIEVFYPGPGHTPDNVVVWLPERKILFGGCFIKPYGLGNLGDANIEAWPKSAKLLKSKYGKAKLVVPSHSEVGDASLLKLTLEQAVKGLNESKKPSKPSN

Regarding `Cc1ccc(-c2cc(-c3ccccc3[N+](=O)[O-])[nH]n2)c(O)c1`, the 50% effective concentration (EC50) in assay [1] is 2.35 µM (inconclusive); in the assay with H4, > 120 µM (not active); in [2], 80.2 µM (not active).

`O=S(=O)(Nc1ccccc1N1CCCCC1)c1ccc(Cl)s1`: the EC50 on Mucolipin-3 [3] is 0.872 µM (active); on Ion channel NompC [4], > 29.9 µM (not active); on Mucolipin-3 [5] it was 0.62 µM (active); at Ion channel NompC [6] it was > 29.9 µM (inactive).

For the compound `COc1cccc(NC(=O)c2ccccc2)c1`, in assay [7], the IC50 was 13.7 µM (active).

Turning to `CC(Oc1ccc2oc(-c3ccccc3)c(C(=O)O)c2c1)C(=O)O` (stereo not drawn), the Ki in assay [8] is 102 µM (inactive).

As for `Cn1nccc1NC(=O)Nc1ccc(OC(F)(F)F)cc1`, the EC50 in [9] and in [10] was > 55.7 µM (not active) in each case.

Turning to `CC(C)(C)N/N=C1\CC(c2ccccc2)Oc2ccccc21` (stereo not drawn), in the assay with Streptococcus, the EC50 is on record as > 500 µM (not active).

As for `CN1CCN(C2=CC3=CC(=C(C#N)C#N)CCC3CC2)CC1` (stereo not drawn), the IC50 at Leucine aminopeptidase was 100 µM (active); in [11], 2.76 µM (active); on Beta-lactamase [12], 3.5 µM (active); in [13] it was 13.9 µM (not active); at Beta-lactamase [14] it was 2.28 µM (active). Besides, the EC50 in assay [15] is > 100 µM (active).

A word on the EC50: it is the concentration at which the effect is half-maximal. For orientation: IC50 means the concentration that inhibits the measured activity by half. One may read the Ki as a measure of affinity in units of concentration, obtained from inhibition or displacement.
